Test results published in the supplement of paper PMC12317010.

Experiment: collision cross section in nitrogen (drift tube, single-field); higher = larger gas-phase ion size
[1] = ion type: [M+H], ion source: APCI, ion mode: Positive
[2] = ion type: [M+H], ion source: ESI, ion mode: Positive
[3] = ion type: [M+Na], ion source: ESI, ion mode: Positive
[4] = ion type: [M-H], ion source: ESI, ion mode: Negative
[5] = ion type: [M+], ion source: APCI, ion mode: Positive
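Also: chemical standards at 10 µM analysed by drift tube IMS-QTOF MS in about 3.95 torr nitrogen, mean of duplicate injections differing ≤1%, mass error below 10 ppm.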

Compound | collision cross section in nitrogen [1] [Å²] | collision cross section in nitrogen [2] [Å²] | collision cross section in nitrogen [4] [Å²] | collision cross section in nitrogen [3] [Å²] | further results
COP(=O)(OC)SCn1c(=O)oc2cc(Cl)cnc21 [Azamethiphos] | 160.6 | 161.5 |  | 171.2 | 
Nc1ccc([N+](=O)[O-])cc1Cl [2-Chloro-4-nitroaniline] |  |  | 126.1 |  | 
CCCCOC(=O)CCCCC(=O)OCCCC [Dibutyl adipate] |  |  |  | 180.8 | 
CCC(C)(C)C(=O)OC1=C(c2ccc(Cl)cc2Cl)C(=O)OC12CCCCC2 [Spirodiclofen] |  |  |  | 209.5 | 
CCCOc1ccc(S(=O)(=O)N2CCN(CC)CC2)cc1-c1nc2c(CC)n(Cc3ccccn3)nc2c(=O)[nH]1 | 237 | 236.5 | 238.6 | 256.9 | 
CC1=NN(c2ccc(C)cc2)C(=O)C1 [3-Methyl-1-p-tolyl-5-pyrazolone] |  | 142.9 | 144.4 | 156.9 | 
CC(Cc1ccc(OCC(=O)O)cc1)NCC(O)c1csc(C(F)(F)F)n1 (stereo unspecified) | 181.1 | 181.4 | 184.7 | 181.2 | 
CCOP(=O)(NC(C)C)Oc1ccc(S(C)(=O)=O)c(C)c1 (stereo unspecified) [Fenamiphos sulfone] | 182.4 | 180.3 | 176.7 | 181.5 | 
O=C(O)c1ccccc1C(c1ccc(O)cc1)c1ccc(O)cc1 [Phenolphthalin] |  |  | 184.1 |  | 
CC1=C(C(=O)Nc2ccccc2)SCCO1 [Carboxin] | 151.4 | 153 | 155.8 | 165.7 | 
COc1cc(O)c(C(=O)c2ccccc2)cc1S(=O)(=O)O [Sulisobenzone hydrate] |  |  | 167.7 |  | 
CCCOC(=O)c1ccc(O)cc1 [Propylparaben] |  |  | 142.9 |  | 
c1cc(C(c2ccc(OCC3CO3)cc2)c2ccc(OCC3CO3)cc2)ccc1OCC1CO1 (stereo unspecified) |  |  |  | 199.3 | 
CCCCCCOC(=O)CCCCC(=O)OCCCCCC [Dihexyl hexanedioate] |  |  |  | 202.5 | 
COC(=O)[C@H]1[C@H]2C[C@@H]3c4[nH]c5cc(OC)ccc5c4CCN3C[C@H]2C[C@@H](OC(=O)c2cc(OC)c(OC)c(OC)c2)[C@@H]1OC [Reserpine] |  |  |  |  | collision cross section in nitrogen [5]: 242.8 Å²
N#Cc1ccccc1N [2-Aminobenzonitrile] |  |  | 118 |  | 
CCCCCCCCCCCC[N+](C)(C)C [Dodecyltrimethylammonium chloride] |  |  |  |  | collision cross section in nitrogen (ion source: APCI, ion mode: Positive, ion type: [M]+ (permanent cation)): 175.2 Å²; collision cross section in nitrogen (ion source: ESI, ion mode: Positive, ion type: [M]+ (permanent cation)): 175.9 Å²
Cc1[nH]c(=O)n(C(C)(C)C)c(=O)c1Cl [Terbacil] |  |  | 144.9 |  | 
O=[N+]([O-])c1ccc(C=Cc2ccc([N+](=O)[O-])cc2S(=O)(=O)O)c(S(=O)(=O)O)c1 |  |  | 182.4 |  | 
CC(C)(C)c1ccc(O)cc1 [4-(1,1-Dimethylethyl)phenol] |  |  | 139.5 |  | 

Continued, in another order:

collision cross section in nitrogen [1] [Å²] | collision cross section in nitrogen [2] [Å²] | collision cross section in nitrogen [4] [Å²] | Compound | collision cross section in nitrogen [3] [Å²] | further results
200.7 | 200.6 | 191.2 | CCCCCCCC/C=C\CCCCCCCC(=O)N(C)CC(=O)O [Oleyl sarcosine] | 196 | 
 | 259 | 260.3 | CCN(Cc1cccc(S(=O)(=O)O)c1)c1ccc(C(=C2C=CC(=[N+](CC)Cc3cccc(S(=O)(=O)O)c3)C=C2)c2ccc(O)cc2S(=O)(=O)[O-])cc1 [FD&C Green No. 3] | 260.8 | 
176.9 | 176.7 |  | Cc1ccc(Nc2ccc(O)c3c2C(=O)c2ccccc2C3=O)cc1 [D&C Violet 2] |  | collision cross section in nitrogen [5]: 174 Å²
145.3 | 145.5 |  | Cc1ccc(-c2nc3ccccc3o2)cc1 [2-(4-Methylphenyl)-1,3-benzoxazole] |  | 
 | 173.4 |  | CNCc1cc(F)ccc1Oc1ccc(Cl)c(Cl)c1 |  | 
163.4 |  |  | CCCC1C(CC)=CC(CC)=CN1c1ccccc1 (stereo unspecified) [3,5-Diethyl-1-phenyl-2-propyl-1,2-dihydropyridine] |  | 
